{
  "source": "paper PMC7827406",
  "about": "“Structure–Activity Relationship (SAR) Study of Spautin-1 to Entail the Discovery of Novel NEK4 Inhibitors” (International Journal of Molecular Sciences, 2021)",
  "experiment_in_all_cases": "biochemical",
  "set-up_in_all_cases": "Eurofins KinaseProfiler full panel at Km ATP, residual kinase activity (%) relative to DMSO",
  "key": {"[1]": {"target": "T1, ALK4(h) (Homo sapiens, UniProt P36896)", "T1 construct": "gene ACVR1B", "T1 sequence (P36896 1-505)": "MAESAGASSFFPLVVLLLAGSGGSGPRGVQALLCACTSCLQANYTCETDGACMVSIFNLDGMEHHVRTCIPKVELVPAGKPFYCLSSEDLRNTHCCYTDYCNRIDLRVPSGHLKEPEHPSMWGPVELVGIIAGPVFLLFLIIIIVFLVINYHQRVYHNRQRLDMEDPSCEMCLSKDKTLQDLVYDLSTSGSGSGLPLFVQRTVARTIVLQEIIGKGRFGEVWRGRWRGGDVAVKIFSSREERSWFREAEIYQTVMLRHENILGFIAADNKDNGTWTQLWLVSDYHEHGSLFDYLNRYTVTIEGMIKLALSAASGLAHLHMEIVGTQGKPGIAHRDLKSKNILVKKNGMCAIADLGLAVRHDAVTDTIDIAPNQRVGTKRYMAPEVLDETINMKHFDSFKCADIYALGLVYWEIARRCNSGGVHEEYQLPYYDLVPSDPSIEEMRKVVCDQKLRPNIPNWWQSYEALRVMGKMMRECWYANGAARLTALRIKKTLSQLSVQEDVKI", "method_in_brief": "(§1)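 Radiometric kinase activity assays were run with ATP at Km and compounds at 10 µM, and remaining activity (%) was reported. A separate competitive binding screen measured DNA-tagged kinase displaced from immobilized active-site ligands by qPCR, giving percent kinase still bound at 10 µM compound in DMSO.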"}, "[2]": {"target": "T2, CHK2(I157T)(h) (Homo sapiens, UniProt O96017, I157T)", "T2 construct": "gene CHEK2", "T2 sequence (O96017 whole entry I157T)": "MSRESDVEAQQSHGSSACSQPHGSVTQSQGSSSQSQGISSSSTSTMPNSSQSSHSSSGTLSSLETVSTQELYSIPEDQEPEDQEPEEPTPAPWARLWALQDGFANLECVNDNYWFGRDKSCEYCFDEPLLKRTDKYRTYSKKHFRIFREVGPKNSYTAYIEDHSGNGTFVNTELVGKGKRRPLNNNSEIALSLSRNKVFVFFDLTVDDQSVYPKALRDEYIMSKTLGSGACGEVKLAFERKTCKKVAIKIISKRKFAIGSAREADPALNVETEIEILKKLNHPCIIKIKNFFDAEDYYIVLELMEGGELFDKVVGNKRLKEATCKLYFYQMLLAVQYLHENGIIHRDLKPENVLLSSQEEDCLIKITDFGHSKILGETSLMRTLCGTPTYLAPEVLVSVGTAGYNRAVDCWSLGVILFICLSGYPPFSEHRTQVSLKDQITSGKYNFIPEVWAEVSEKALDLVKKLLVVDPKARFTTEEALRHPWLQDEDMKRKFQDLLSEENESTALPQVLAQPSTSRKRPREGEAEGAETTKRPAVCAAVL", "method_in_brief": "as §1"}, "[3]": {"target": "CLK1(h) (Homo sapiens, UniProt P49759)", "sequence (P49759 whole entry)": "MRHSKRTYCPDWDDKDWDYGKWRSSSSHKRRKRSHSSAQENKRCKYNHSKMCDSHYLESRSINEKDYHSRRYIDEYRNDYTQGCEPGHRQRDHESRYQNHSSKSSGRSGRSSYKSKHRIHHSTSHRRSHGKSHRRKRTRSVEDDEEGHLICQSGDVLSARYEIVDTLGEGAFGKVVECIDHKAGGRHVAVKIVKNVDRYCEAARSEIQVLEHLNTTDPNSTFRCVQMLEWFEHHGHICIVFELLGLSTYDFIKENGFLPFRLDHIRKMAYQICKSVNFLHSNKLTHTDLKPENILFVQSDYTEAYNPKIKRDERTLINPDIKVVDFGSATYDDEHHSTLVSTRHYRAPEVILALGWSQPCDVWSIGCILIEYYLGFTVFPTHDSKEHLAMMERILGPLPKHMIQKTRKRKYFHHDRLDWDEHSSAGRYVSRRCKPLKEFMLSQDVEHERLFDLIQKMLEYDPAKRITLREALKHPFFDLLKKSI", "method_in_brief": "as §1"}, "[4]": {"target": "T3, IR(h), activated (Homo sapiens, UniProt P06213)", "T3 construct": "gene INSR", "method_in_brief": "as §1"}, "[5]": {"target": "T4, PI3 Kinase (p110a(E542K)/p85a)(m) (Mus musculus, UniProt P42337, E542K)", "T4 construct": "gene Pik3ca", "T4 sequence (P42337 whole entry E542K)": "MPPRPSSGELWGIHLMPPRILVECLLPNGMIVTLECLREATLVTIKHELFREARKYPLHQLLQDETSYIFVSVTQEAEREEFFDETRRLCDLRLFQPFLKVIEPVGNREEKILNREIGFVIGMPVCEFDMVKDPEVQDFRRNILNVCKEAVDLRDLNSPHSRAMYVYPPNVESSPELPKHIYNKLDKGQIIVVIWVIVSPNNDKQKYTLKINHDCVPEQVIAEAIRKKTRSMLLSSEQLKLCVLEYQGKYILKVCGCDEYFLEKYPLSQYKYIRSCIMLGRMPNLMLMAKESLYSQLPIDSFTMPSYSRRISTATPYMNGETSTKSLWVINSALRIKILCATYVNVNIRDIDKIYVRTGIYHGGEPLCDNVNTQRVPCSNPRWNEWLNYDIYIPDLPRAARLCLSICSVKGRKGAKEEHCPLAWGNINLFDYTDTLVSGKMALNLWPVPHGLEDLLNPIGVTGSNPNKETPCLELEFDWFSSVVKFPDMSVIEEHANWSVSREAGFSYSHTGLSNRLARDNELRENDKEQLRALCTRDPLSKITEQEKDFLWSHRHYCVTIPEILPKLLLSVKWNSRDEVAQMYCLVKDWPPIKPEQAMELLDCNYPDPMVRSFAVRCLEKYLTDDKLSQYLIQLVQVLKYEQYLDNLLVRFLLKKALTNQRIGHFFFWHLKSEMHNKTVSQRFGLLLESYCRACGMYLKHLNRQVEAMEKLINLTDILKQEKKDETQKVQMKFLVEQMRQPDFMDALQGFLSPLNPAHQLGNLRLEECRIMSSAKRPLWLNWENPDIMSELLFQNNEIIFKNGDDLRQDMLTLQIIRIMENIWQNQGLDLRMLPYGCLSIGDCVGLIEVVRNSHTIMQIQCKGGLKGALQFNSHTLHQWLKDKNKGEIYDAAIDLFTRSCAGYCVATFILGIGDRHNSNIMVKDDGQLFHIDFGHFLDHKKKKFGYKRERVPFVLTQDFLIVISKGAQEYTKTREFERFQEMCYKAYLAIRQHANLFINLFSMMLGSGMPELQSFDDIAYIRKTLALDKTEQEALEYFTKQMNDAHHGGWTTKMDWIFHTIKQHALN", "T4 sequence (P26450 whole entry partner)": "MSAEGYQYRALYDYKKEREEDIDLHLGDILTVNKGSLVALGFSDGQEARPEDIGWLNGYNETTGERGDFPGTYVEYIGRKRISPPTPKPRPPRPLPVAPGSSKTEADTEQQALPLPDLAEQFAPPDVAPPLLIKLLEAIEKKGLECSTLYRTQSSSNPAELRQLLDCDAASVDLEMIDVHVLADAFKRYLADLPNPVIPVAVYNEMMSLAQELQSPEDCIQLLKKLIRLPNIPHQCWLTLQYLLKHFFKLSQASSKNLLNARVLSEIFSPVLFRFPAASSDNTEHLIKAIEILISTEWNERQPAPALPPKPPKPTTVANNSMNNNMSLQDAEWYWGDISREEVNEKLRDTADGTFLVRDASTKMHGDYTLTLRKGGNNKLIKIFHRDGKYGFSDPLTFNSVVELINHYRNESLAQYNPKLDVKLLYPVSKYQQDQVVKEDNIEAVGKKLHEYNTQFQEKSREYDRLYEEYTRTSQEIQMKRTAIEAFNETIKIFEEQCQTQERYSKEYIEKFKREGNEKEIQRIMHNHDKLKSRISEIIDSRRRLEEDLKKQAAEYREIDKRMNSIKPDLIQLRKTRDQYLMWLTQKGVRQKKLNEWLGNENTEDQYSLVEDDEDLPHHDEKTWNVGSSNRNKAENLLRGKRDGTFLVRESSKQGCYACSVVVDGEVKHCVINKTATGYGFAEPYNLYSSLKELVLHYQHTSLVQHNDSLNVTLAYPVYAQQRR", "method_in_brief": "as §1"}, "[6]": {"target": "T5, PI3KC2a(h) (Homo sapiens, UniProt O00443)", "T5 construct": "gene PIK3C2A", "T5 sequence (O00443 whole entry)": "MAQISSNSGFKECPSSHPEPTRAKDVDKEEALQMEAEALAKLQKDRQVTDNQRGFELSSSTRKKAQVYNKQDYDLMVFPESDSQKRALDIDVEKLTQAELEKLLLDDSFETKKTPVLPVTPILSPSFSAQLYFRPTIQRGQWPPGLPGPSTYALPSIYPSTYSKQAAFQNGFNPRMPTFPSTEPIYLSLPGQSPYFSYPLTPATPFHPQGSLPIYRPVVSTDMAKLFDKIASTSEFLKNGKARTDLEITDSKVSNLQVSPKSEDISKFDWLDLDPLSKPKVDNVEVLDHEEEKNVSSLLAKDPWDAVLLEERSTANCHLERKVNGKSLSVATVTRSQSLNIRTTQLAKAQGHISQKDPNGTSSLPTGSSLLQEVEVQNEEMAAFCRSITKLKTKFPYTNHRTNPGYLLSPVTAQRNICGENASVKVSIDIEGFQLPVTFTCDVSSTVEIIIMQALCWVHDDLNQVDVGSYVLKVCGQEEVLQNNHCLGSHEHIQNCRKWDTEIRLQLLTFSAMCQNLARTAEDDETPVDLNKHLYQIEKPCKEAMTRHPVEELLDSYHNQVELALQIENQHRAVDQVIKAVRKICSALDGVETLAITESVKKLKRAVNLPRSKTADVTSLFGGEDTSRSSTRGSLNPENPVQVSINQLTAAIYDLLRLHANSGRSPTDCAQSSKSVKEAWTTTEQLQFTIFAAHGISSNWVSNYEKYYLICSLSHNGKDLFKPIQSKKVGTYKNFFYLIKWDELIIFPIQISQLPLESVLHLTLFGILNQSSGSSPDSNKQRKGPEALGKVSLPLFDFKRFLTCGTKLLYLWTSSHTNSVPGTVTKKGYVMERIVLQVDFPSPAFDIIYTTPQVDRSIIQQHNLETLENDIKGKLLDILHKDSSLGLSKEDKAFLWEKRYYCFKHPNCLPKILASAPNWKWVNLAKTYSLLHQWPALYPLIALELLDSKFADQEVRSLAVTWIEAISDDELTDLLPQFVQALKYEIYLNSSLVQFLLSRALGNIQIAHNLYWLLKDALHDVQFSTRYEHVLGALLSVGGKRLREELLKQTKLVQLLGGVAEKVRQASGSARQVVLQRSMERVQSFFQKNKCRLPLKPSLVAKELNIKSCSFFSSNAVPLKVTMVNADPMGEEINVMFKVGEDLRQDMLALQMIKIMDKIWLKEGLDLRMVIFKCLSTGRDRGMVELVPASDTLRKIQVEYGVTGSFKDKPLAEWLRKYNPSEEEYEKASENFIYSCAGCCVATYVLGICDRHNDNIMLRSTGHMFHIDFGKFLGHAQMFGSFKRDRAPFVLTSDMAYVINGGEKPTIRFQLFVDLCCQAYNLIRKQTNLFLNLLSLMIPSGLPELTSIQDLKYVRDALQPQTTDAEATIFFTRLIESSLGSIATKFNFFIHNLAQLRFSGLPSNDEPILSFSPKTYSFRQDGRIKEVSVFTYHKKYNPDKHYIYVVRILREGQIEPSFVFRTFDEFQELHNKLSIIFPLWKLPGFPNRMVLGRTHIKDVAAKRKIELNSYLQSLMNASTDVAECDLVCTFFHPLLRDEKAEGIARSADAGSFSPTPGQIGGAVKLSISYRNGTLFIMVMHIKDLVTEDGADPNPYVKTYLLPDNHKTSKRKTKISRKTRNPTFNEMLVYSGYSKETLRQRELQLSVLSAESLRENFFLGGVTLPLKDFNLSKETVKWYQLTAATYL", "method_in_brief": "as §1"}, "[7]": {"target": "T6, TSSK2(h) (Homo sapiens, UniProt Q96PF2)", "T6 sequence (Q96PF2 1-358)": "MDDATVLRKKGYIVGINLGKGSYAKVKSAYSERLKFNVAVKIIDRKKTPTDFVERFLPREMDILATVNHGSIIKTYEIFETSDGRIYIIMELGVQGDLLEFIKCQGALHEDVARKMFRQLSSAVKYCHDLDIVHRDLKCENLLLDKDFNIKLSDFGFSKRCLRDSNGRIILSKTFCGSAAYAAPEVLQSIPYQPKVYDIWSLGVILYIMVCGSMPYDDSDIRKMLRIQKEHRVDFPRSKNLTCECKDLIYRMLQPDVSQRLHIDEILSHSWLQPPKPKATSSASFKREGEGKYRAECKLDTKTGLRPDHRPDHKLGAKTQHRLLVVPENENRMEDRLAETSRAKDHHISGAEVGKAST", "method_in_brief": "as §1"}, "[8]": {"conditions": "read-out: Residual activity (%) Spautin-1 5aa"}, "[9]": {"conditions": "read-out: Residual activity (%) 5as"}, "[10]": {"conditions": "read-out: Residual activity (%) 5at"}, "[11]": {"conditions": "read-out: Residual activity (%) 5ay"}},
  "note": "Read-outs that look alike come from different tables or passages of the source.",
  "data": [
    {"compound": "Fc1ccc(CNc2ncnc3ccc(F)cc23)cc1", "note": "[5aa, 6-Fluoro-N-(4-fluorobenzyl)-4-Quinazolinamine]", "values": [
      {"measurement": "remaining activity at 10 µM", "setting": "[1]; [8]", "result": 121, "unit": "%"},
      {"measurement": "remaining activity at 10 µM", "setting": "[2]; [8]", "result": 88, "unit": "%"},
      {"measurement": "remaining activity at 10 µM", "setting": "[3]; [8]", "result": 23, "unit": "%"},
      {"measurement": "remaining activity at 10 µM", "setting": "[4]; [8]", "result": 98, "unit": "%"},
      {"measurement": "remaining activity at 10 µM", "setting": "[5]; [8]", "result": 96, "unit": "%"},
      {"measurement": "remaining activity at 10 µM", "setting": "[6]; [8]", "result": 102, "unit": "%"},
      {"measurement": "remaining activity at 10 µM", "setting": "[7]; [8]", "result": 101, "unit": "%"}
    ]},
    {"compound": "Fc1ccc(CCNc2ncnc3ccc(F)cc23)cc1", "note": "[5as, 6-Fluoro-N-[2-(4-Fluorophenyl)Ethyl]-4-Quinazolinamine]", "values": [
      {"measurement": "remaining activity at 10 µM", "setting": "[1]; [9]", "result": 84, "unit": "%"},
      {"measurement": "remaining activity at 10 µM", "setting": "[2]; [9]", "result": 105, "unit": "%"},
      {"measurement": "remaining activity at 10 µM", "setting": "[3]; [9]", "result": 28, "unit": "%"},
      {"measurement": "remaining activity at 10 µM", "setting": "[4]; [9]", "result": 64, "unit": "%"},
      {"measurement": "remaining activity at 10 µM", "setting": "[5]; [9]", "result": 91, "unit": "%"},
      {"measurement": "remaining activity at 10 µM", "setting": "[6]; [9]", "result": 100, "unit": "%"},
      {"measurement": "remaining activity at 10 µM", "setting": "[7]; [9]", "result": 97, "unit": "%"}
    ]},
    {"compound": "Fc1ccc2ncnc(NCCc3ccc(Cl)cc3)c2c1", "note": "[5at, N-[2-(4-Chlorophenyl)Ethyl]-6-Fluoro-4-Quinazolinamine]", "values": [
      {"measurement": "remaining activity at 10 µM", "setting": "[1]; [10]", "result": 61, "unit": "%"},
      {"measurement": "remaining activity at 10 µM", "setting": "[2]; [10]", "result": 99, "unit": "%"},
      {"measurement": "remaining activity at 10 µM", "setting": "[3]; [10]", "result": 28, "unit": "%"},
      {"measurement": "remaining activity at 10 µM", "setting": "[4]; [10]", "result": 76, "unit": "%"},
      {"measurement": "remaining activity at 10 µM", "setting": "[5]; [10]", "result": 94, "unit": "%"},
      {"measurement": "remaining activity at 10 µM", "setting": "[6]; [10]", "result": 105, "unit": "%"},
      {"measurement": "remaining activity at 10 µM", "setting": "[7]; [10]", "result": 103, "unit": "%"}
    ]},
    {"compound": "COc1ccc2ncnc(Nc3cccc(F)c3)c2c1", "note": "[5ay, N-(3-Fluorophenyl)-6-Methoxy-4-Quinazolinamine]", "values": [
      {"measurement": "remaining activity at 10 µM", "setting": "[1]; [11]", "result": 73, "unit": "%"},
      {"measurement": "remaining activity at 10 µM", "setting": "[2]; [11]", "result": 91, "unit": "%"},
      {"measurement": "remaining activity at 10 µM", "setting": "[3]; [11]", "result": 14, "unit": "%"},
      {"measurement": "remaining activity at 10 µM", "setting": "[4]; [11]", "result": 71, "unit": "%"},
      {"measurement": "remaining activity at 10 µM", "setting": "[5]; [11]", "result": 93, "unit": "%"},
      {"measurement": "remaining activity at 10 µM", "setting": "[6]; [11]", "result": 106, "unit": "%"},
      {"measurement": "remaining activity at 10 µM", "setting": "[7]; [11]", "result": 103, "unit": "%"}
    ]}
  ]
}
